# According to PMC2847595 (Nuclear medicine and biology, 2010):
# Legend:
# [1] = Ex vivo radio-HPLC analysis of mouse plasma after radiotracer injection; assay type: in vivo; settings: for plasma concentration: 30 min after radiotracer injection; for increase of plasma concentration by ketoconazole pretreatment: both wild-type and knockout mice, ketoconazole 50 mg/kg i.p.
# [2] = Ex vivo radio-HPLC analysis of mouse whole brain after radiotracer injection; assay type: in vivo; settings: for increase of brain concentration by ketoconazole pretreatment: ketoconazole 50 mg/kg i.p.; for brain concentration: 30 min after radiotracer injection
# P-glycoprotein (P-gp) = settings: cited from earlier work
# CYP3A4 = settings: cited from earlier work
# cDNA-expressed CYP3A4 = settings: in vitro; cited from earlier work
# [3] = P-gp knockout mice, baseline (no ketoconazole)
# [4] = P-gp knockout mice, ketoconazole 50 mg/kg i.p. pretreatment
# [5] = wild-type mice, baseline (no ketoconazole)
# [6] = wild-type mice, ketoconazole 50 mg/kg i.p. pretreatment
# [7] = P-gp knockout mice, after [11C]loperamide
# [8] = wild-type mice, after [11C]loperamide
Structure (SMILES),"plasma concentration [1, 3]","plasma concentration [1, 4]",increase of plasma concentration by ketoconazole pretreatment [1],"plasma concentration [1, 5]","plasma concentration [1, 6]","increase of brain concentration by ketoconazole pretreatment [2, 7]","brain concentration ([2]; P-gp knockout mice, baseline)","brain concentration [2, 4]","effect of ketoconazole pretreatment on brain concentration ([2]; either knockout or wild-type mice, after [11C]dLop)","effect of ketoconazole pretreatment on brain concentration [2, 8]","brain concentration ([2]; wild-type mice, baseline)","brain concentration [2, 6]",P-gp substrate (P-glycoprotein (P-gp)),Ki (CYP3A4),inhibition of the N-demethylation of loperamide (cDNA-expressed CYP3A4)
CN([11CH3])C(=O)C(CCN1CCC(O)(c2ccc(Cl)cc2)CC1)(c1ccccc1)c1ccccc1 [[^11C]dLop] [[N-methyl-^11C]N-desmethyl-loperamide],2.26 ± 0.54 % SUV,3.4 ± 0.4 % SUV,about two-fold,1.36 ± 0.18 % SUV,3.3 ± 0.4 % SUV,two-fold,37.1 ± 7.3 % SUV,37.9 ± 6.7 % SUV,little effect,did not increase,1.93 ± 0.52 % SUV,2.2 ± 0.5 % SUV,avid substrate for P-gp,,
CN([11CH3])C(=O)C(CCN1CCC(O)(c2ccc(Cl)cc2)CC1)(c1ccccc1)c1ccccc1 [[^11C]loperamide] [[N-methyl-^11C]loperamide],7.37 ± 4.55 % SUV,17.1± 9.0 % SUV,about two-fold,10.3 ± 2.1 % SUV,17.6 ± 5.9 % SUV,about two-fold,20.4 ± 3.2 % SUV,43.9 ± 14.0 % SUV,,no effect,2.86 ± 0.97 % SUV,2.9± 0.7 % SUV,,,
CC(=O)N1CCN(c2ccc(OCC3COC(Cn4ccnc4)(c4ccc(Cl)cc4Cl)O3)cc2)CC1 (stereo not drawn) [ketoconazole],,,,,,,,,,,,,,[…],90%
"CN(C)C(=O)C(CCN1CCC(O)(c2ccc(Cl)cc2)CC1)(c1ccccc1)c1ccccc1 [loperamide, reference compound]",,,,,,,,,,,,,avid substrate for P-gp,,
